The structures appear in SMILES notation. pIC50, pKi: −log10 of the molar value.

In one data set the target is T1, Human aurora kinase A (Homo sapiens, UniProt O14965).
T1 construct: purchased Upstate, Dundee, UK
T1 sequence (O14965 1-403): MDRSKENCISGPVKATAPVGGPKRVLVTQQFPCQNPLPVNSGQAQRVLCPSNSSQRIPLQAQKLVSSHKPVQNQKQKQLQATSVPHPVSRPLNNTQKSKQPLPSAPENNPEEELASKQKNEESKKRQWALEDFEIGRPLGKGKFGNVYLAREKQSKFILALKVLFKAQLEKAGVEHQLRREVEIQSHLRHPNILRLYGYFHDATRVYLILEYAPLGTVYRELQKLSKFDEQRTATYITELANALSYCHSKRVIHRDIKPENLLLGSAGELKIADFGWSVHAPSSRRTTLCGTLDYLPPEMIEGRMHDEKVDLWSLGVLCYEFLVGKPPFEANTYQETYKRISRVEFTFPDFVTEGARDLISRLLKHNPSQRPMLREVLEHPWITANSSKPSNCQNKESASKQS
Put plainly: Aurora-A (human) kinase assay. It is filed as biochemical. Conditions: values marked *: Human aurora kinase A; read-out: Aur A IC50 (*Human aurora kinase A). The protocol: This was achieved by measurement of incorporation of radioactive phosphate from ATP into Kemptide substrate (LRRASLG), upon phosphorylation by commercially obtained aurora-A (human, Upstate, Dundee, UK). Assays were performed using 96-well plates and appropriate assay buffers (20 mM Tris, 25 mM β-glycerophosphate, 5 mM EGTA, 1 mM DTT, 1 mM sodium vanadate, pH 7.5), into which were added 2-5 ng of active enzyme with 500 μM substrate (Kemptide). The reactions were initiated by addition of MgATP mix (15 mM MgCl2+100 μM ATP with 15-25 kBq per well of [γ-^32P]-ATP) and mixtures incubated for 30 min at 30° C. Reactions were stopped by addition of an equal volume of 75 mM aq orthophosphoric acid, followed by filtration through p81 filterplates (Whatman Polyfiltronics, Kent, UK). After washing 4 times with 75 mM aq orthophosphoric acid, plates were dried, scintillant added and incorporated radioactivity measured in a scintillation counter (TopCount, Packard Instruments, Pangbourne, Berks, UK). Compounds for kinase assay were made up as 10 mM stocks in DMSO and diluted into 10% DMSO in assay buffer. Data was analysed using curve-fitting software (XLfit version 4.0.2, IDBS, Guildford, Surrey, UK) to determine IC50 values (concentration of test compound which inhibits kinase activity by 50%).

A further data set addresses DM Aur A (Dm AK-A) (Drosophila melanogaster, UniProt Q9VGF9). Put plainly: Dm aurora A kinase assay (DM Aur A / Dm AK-A). It is filed as biochemical. To be noted: for pKi: in vitro kinase assay; for pIC50: values without asterisk (DM aurora A). How it is done:
(§1) The compounds of the invention above were investigated for their ability to inhibit the enzymatic activity of various protein kinases. This was achieved by measurement of incorporation of radioactive phosphate from ATP into appropriate polypeptide substrates. Recombinant protein kinases and kinase complexes were produced or obtained commercially. Assays were performed using 96-well plates and appropriate assay buffers (typically 25 mM β-glycerophosphate, 20 mM MOPS, 5 mM EGTA, 1 mM DTT, 1 mM […], pH 7.4), into which were added 2-4 μg of active enzyme with appropriate substrates. The reactions were initiated by addition of Mg/ATP mix (15 mM MgCl2+100 μM ATP with 30-50 kBq per well of [γ-^32P]-ATP) and mixtures incubated as required at 30° C. Reactions were stopped on ice, followed by filtration through p81 filterplates or GF/C filterplates (Whatman Polyfiltronics, Kent, UK). After washing 3 times with 75 mM aq orthophosphoric acid, plates were dried, scintillant added and incorporated radioactivity measured in a scintillation counter (TopCount, Packard Instruments, Pangbourne, Berks, UK). Compounds for kinase assay were made up as 10 mM stocks in DMSO and diluted into 10% DMSO in assay buffer. Data was analysed using curve-fitting software (GraphPad Prism version 3.00 for Windows, GraphPad Software, San Diego Calif. USA) to determine IC50 values (concentration of test compound which inhibits kinase activity by 50%).

A further data set deals with CDK2/E (Homo sapiens, UniProt P24941). Put plainly: CDK2/E in vitro kinase assay. It is filed as biochemical. The protocol:
as §1

The target of a further data set is GSK3 (GSK-3β) (Oryctolagus cuniculus, UniProt A0A5F9DUX8). Briefly: GSK-3 kinase assay. Conditions: in vitro kinase assay. It is filed as biochemical, rabbit. How it is done:
GSK-3 was obtained from New England Biolabs (UK) Ltd., Hitchin, Herts. The recombinant enzyme was isolated from a strain of E. coli that carries a clone expressing GSK-3β derived from a rabbit skeletal muscle cDNA library [Wang, Q. M.; Fiol, C. J.; DePaoli-Roach, A. A.; Roach, P. J. J. Biol. Chem., 1994, 269, 14566]. Inhibition of GSK-3 function was assessed by measurement of phosphorylation of CREB phosphopeptide KRREILSRRPphosphoSYR in the presence of test compounds. Using a 96-well assay format, GSK3 (7.5 U) was incubated for 30 min at 30° C. in a total volume of 25 μL in 20 mM MOPS pH 7.2, 25 mM β-glycerophosphate, 5 mM EGTA, 1 mM DTT, 1 mM […], 40 μM CREB peptide, 15 mM MgCl2 and 100 μM ATP (containing 0.25 μCi [γ-^32P]-ATP) in the presence of varying concentrations of test compound. The samples were transferred to 96-well p81 filter plates (Whatman Polyfiltronics, Kent, UK), and the plates were washed 4 times with 200 μL/well of 75 mM aq orthophosphoric acid. Scintillation liquid (50 μL) was added to each well, and incorporated radioactivity for each sample was determined using a scintillation counter (TopCount, Packard Instruments, Pangboume, Berks, UK).

Sequence of GSK3 (GSK-3β) (A0A5F9DUX8 entry or part of it): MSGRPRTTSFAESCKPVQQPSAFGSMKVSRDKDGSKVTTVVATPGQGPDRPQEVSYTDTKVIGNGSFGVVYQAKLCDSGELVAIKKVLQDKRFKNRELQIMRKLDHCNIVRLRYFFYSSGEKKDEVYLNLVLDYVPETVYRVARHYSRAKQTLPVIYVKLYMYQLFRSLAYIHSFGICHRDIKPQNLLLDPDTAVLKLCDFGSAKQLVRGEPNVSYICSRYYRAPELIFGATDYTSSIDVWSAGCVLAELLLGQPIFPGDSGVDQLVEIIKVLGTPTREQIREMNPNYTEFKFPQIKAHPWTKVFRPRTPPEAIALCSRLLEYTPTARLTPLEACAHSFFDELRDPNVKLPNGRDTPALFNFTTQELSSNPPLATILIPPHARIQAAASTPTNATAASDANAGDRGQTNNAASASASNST
Sequence of DM Aur A (Dm AK-A) (Q9VGF9 entry or part of it): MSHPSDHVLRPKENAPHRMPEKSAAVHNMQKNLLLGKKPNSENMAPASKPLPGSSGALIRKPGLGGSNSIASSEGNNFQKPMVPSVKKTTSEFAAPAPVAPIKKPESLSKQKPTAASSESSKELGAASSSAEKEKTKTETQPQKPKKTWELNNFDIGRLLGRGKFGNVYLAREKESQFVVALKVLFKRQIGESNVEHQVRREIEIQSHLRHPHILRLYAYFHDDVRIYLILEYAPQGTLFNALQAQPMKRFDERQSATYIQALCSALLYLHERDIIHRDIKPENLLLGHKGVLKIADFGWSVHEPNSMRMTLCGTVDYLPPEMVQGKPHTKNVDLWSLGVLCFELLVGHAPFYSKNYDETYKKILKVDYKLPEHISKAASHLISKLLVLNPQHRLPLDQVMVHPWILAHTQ

Take `Cc1cn(C)c(C)c1-c1ccnc(Nc2ccc(N3CCOCC3)cc2)n1` [Compound 48]: the pIC50 on Human aurora kinase A is 6.65.
Same read-out and setting: as for `CCOC(=O)c1[nH]c(C)c(-c2ccnc(Nc3cc(Cl)c(N4CCOCC4)c(Cl)c3)n2)c1C` [Compound 47], the figure is < 5.00.
As to `Cc1[nH]c(C#N)c(C)c1-c1ccnc(Nc2ccc(N3CCN(Cc4ccccc4)CC3)cc2)n1` [Compound 40], on DM Aur A (Dm AK-A), the pKi is 6.97 and the pIC50 was 6.56.
Take `COc1cc(Nc2nccc(-c3c(C)cn(C)c3C)n2)cc(OC)c1OC` [Compound 57]: the pKi at CDK2/E was < 5.00.
`CCN(CC)CCNS(=O)(=O)c1ccc(Nc2nccc(-c3c(C)[nH]c(C#N)c3C)n2)cc1` [Compound 36]: the values for the pKi at CDK2/E, on GSK3 (GSK-3β) and on DM Aur A (Dm AK-A) were 7.92, 7.85 and 6.51, respectively. In addition, on DM Aur A (Dm AK-A), the pIC50 is 6.10.
As for `CCOC(=O)c1[nH]c(C)c(-c2ccnc(Nc3ccc(N4CCOCC4)c(OC)c3)n2)c1C` [Compound 54], the pIC50 on Human aurora kinase A was 7.04. Further, on CDK2/E, the pKi is < 5.00.
Consider `Cc1cc(Nc2nccc(-c3c(C)[nH]c(C#N)c3C)n2)cnc1Cl` [Compound 33], for which the pKi at GSK3 (GSK-3β) was 8.15. At DM Aur A (Dm AK-A), this molecule had a pKi of 6.18 and a pIC50 of 5.77.
As for `CCOC(=O)c1[nH]c(C)c(-c2ccnc(Nc3cc(OC)c(OC)c(OC)c3)n2)c1C` [Compound 58], the pKi on CDK2/E was 5.33.
`Cc1ccc([N+](=O)[O-])cc1Nc1nccc(-c2c(C)[nH]c(C#N)c2C)n1` [Compound 27]: the pKi at CDK2/E is < 5.00; at GSK3 (GSK-3β), 6.43; at DM Aur A (Dm AK-A), < 5.00. The pIC50 on DM Aur A (Dm AK-A) is ≤ 5.00.
As for `COCCOC(=O)c1[nH]c(C)c(-c2ccnc(Nc3ccc(N4CCOCC4)cc3)n2)c1-c1ccccc1` [Compound 37], at DM Aur A (Dm AK-A), the pKi is 6.48 and the pIC50 was 6.07.
For the molecule `CNc1ccc(Nc2nccc(-c3c(C)[nH]c(C#N)c3C)n2)cc1C(F)(F)F` [Compound 31], the pKi is 6.92 on CDK2/E, 7.28 on GSK3 (GSK-3β) and 7.31 at DM Aur A (Dm AK-A). On DM Aur A (Dm AK-A), this molecule showed a pIC50 of 6.90.
In the case of `COc1cc(Nc2nccc(-c3c(C)c[nH]c3C)n2)cc(OC)c1OC` [Compound 56], at CDK2/E, the pKi is < 5.00.
Regarding `COc1cc(Nc2nccc(-c3c(C)c(C#N)n(C)c3C)n2)cc(OC)c1OC` [Compound 53], the pIC50 at Human aurora kinase A was 6.90. Further, on CDK2/E, the pKi is 5.95.
For `Cc1c[nH]c(C)c1-c1ccnc(Nc2ccc(N3CCOCC3)cc2)n1` [Compound 4], at CDK2/E, the pKi is 5.74. Besides, on DM Aur A (Dm AK-A), the pKi was 8.10 and the pIC50 was 7.14.
With `COc1cc(Nc2nccc(-c3c(C)[nH]c(C#N)c3C)n2)cc(OC)c1OC` [Compound 52], the pIC50 at Human aurora kinase A is 6.77. On CDK2/E, this molecule had a pKi of 6.12.
Regarding `Cc1cn(C)c(C)c1-c1ccnc(Nc2ccc(N3CCOCC3)c(Cl)c2)n1` [Compound 49], the pIC50 at Human aurora kinase A was 6.27.
For the molecule `Cc1cc(N2CCOCC2)ccc1Nc1nccc(-c2c(C)c[nH]c2C)n1` [Compound 50], the pIC50 at Human aurora kinase A was < 5.00.
Take `CCOC(=O)c1[nH]c(C)c(-c2ccnc(Nc3cccc(O)c3)n2)c1-c1ccccc1` [Compound 7]: the melting point fell in the range of 123.1 to 124.2 °C. In addition, the pKi at DM Aur A (Dm AK-A) is 6.37.
As for `Cc1c[nH]c(C)c1-c1ccnc(Nc2ccc(N3CC(C)OC(C)C3)cc2)n1` (centres unmarked) [Compound 51], the pIC50 on Human aurora kinase A was 6.64.
Take `CCOC(=O)c1[nH]c(C)c(-c2ccnc(Nc3cccc(F)c3)n2)c1-c1ccccc1` [Compound 8]: the melting point fell in the range of 200 to 203 °C. Also, on DM Aur A (Dm AK-A), the pKi was < 5.00 and the pIC50 is ≤ 5.00.
`COc1ccc(C)c(Nc2nccc(-c3c(C)[nH]c(C#N)c3C)n2)c1` [Compound 29]: the pKi at CDK2/E is < 5.00; on GSK3 (GSK-3β), 6.14; at DM Aur A (Dm AK-A), 5.60. On DM Aur A (Dm AK-A), this molecule gave a pIC50 of 5.19.
Regarding `CC(=O)N1CCN(c2ccc(Nc3nccc(-c4c(C)[nH]c(C#N)c4C)n3)cc2)CC1` [Compound 41], the pKi on CDK2/E was 6.51. On DM Aur A (Dm AK-A), this molecule had a pKi of 7.72 and a pIC50 of 7.32.
On to `CCOC(=O)c1[nH]c(C)c(-c2ccnc(Nc3ccc(N4CCOCC4)cc3)n2)c1C` [Compound 43], for which, at DM Aur A (Dm AK-A), the pKi is 6.99 and the pIC50 is 6.58.
In the case of `Cc1c[nH]c(C)c1-c1ccnc(Nc2ccc(N3CCOCC3)c(Cl)c2)n1` [Compound 44], the pIC50 on Human aurora kinase A is 6.58.
`CCOC(=O)c1[nH]c(C)c(-c2ccnc(Nc3ccc(O)c([N+](=O)[O-])c3)n2)c1-c1ccccc1` [Compound 11]: the melting point was in the range of 202 to 205 °C. On DM Aur A (Dm AK-A), this molecule showed a pKi of 6.56 and a pIC50 of 6.15.
Take `Cc1[nH]c(C#N)c(C)c1-c1ccnc(Nc2cccc(S(=O)(=O)NC(C)C)c2)n1` [Compound 34]: the pKi at CDK2/E was 6.06; at GSK3 (GSK-3β), 8.30; at DM Aur A (Dm AK-A) it was 5.89. The molecule further gave a pIC50 on DM Aur A (Dm AK-A) of 5.48.
For the molecule `Cc1c[nH]c(C)c1-c1ccnc(Nc2cccc(C#N)c2)n1` [Compound 2], the pKi is 5.43 on GSK3 (GSK-3β) and < 5.00 at DM Aur A (Dm AK-A). The pIC50 against DM Aur A (Dm AK-A) was ≤ 5.00.
As for `CCOC(=O)c1[nH]c(C)c(-c2ccnc(Nc3ccc(N4CCOCC4)c(Cl)c3)n2)c1C` [Compound 46], the pIC50 on Human aurora kinase A is 5.52.
As to `CC(=O)N1CCN(c2ccc(Nc3nccc(-c4c(C)[nH]c(C#N)c4C)n3)cn2)CC1` [Compound 38], the pKi at CDK2/E is 6.51. In addition, on DM Aur A (Dm AK-A), the pKi is 7.16 and the pIC50 is 6.75.
As to `Cc1c[nH]c(C)c1-c1ccnc(Nc2cc(Cl)c(N3CCOCC3)c(Cl)c2)n1` [Compound 45], the pIC50 at Human aurora kinase A is < 5.00.
`Cc1c(-c2ccnc(Nc3ccc(N(C)C)cc3)n2)c(C)n(C)c1C#N` [Compound 20]: the pKi on CDK2/E was 6.27; at GSK3 (GSK-3β), 7.96.
For `Cc1[nH]c(C#N)c(C)c1-c1ccnc(Nc2ccc(N3CCOCC3)cc2)n1` [Compound 24] the same measures were 6.24 and 6.90.
As to `Cc1c[nH]c(C)c1-c1ccnc(Nc2ccc(C#N)cc2)n1` [Compound 1], the pKi at GSK3 (GSK-3β) is 6.22. Besides, on DM Aur A (Dm AK-A), the pKi was < 5.00 and the pIC50 was ≤ 5.00.
With `CC(=O)N1CCN(c2ccc(Nc3nccc(-c4c(C)c(C#N)n(C)c4C)n3)cn2)CC1` [Compound 39], at DM Aur A (Dm AK-A), the pKi is 7.04 and the pIC50 is 6.63.
For the molecule `COc1ccc(Nc2nccc(-c3c(C)c[nH]c3C)n2)cn1` [Compound 26], the pKi at CDK2/E is 6.06; on GSK3 (GSK-3β), 6.78.

Values taken from patent US20090215805A1, “4-Heteroaryl Pyrimidine Derivatives and use thereof as Protein Kinase Inhibitors” (Cyclacel Limited, priority 2005, published 2009).
